The record followed here is US8729273B2, “Compounds effective as xanthine oxidase inhibitors, method for preparing the same, and pharmaceutical composition containing the same” (LG Life Sciences Ltd., priority 2009, dated 2014).

Molecules are shown by their SMILES.

The target of the first test is Xanthine oxidase originated from bovine milk (Bos taurus (Bovine), UniProt P80457). In words: Xanthine oxidase inhibition activity (initial velocity of uric acid formation). In kind it is biochemical. The settings on record: 3 min incubation with test compound, substrate xanthine. Here is the method: Xanthine oxidase originated from bovine milk was incubated for 3 min with test compounds, and the initial velocity of uric acid formation was determined by adding the substrate xanthine. The initial velocity of test compound at each concentration was converted to % inhibition rate on the basis of the initial velocity under the absence of the inhibitor, thereby the inhibitor concentration needed for 50% inhibition was calculated as IC50 values. According to the present invention, compounds which show IC50 values against xanthine oxidase from bovine milk in the level of nM were developed.
Xanthine oxidase originated from bovine milk, sequence (P80457 whole entry): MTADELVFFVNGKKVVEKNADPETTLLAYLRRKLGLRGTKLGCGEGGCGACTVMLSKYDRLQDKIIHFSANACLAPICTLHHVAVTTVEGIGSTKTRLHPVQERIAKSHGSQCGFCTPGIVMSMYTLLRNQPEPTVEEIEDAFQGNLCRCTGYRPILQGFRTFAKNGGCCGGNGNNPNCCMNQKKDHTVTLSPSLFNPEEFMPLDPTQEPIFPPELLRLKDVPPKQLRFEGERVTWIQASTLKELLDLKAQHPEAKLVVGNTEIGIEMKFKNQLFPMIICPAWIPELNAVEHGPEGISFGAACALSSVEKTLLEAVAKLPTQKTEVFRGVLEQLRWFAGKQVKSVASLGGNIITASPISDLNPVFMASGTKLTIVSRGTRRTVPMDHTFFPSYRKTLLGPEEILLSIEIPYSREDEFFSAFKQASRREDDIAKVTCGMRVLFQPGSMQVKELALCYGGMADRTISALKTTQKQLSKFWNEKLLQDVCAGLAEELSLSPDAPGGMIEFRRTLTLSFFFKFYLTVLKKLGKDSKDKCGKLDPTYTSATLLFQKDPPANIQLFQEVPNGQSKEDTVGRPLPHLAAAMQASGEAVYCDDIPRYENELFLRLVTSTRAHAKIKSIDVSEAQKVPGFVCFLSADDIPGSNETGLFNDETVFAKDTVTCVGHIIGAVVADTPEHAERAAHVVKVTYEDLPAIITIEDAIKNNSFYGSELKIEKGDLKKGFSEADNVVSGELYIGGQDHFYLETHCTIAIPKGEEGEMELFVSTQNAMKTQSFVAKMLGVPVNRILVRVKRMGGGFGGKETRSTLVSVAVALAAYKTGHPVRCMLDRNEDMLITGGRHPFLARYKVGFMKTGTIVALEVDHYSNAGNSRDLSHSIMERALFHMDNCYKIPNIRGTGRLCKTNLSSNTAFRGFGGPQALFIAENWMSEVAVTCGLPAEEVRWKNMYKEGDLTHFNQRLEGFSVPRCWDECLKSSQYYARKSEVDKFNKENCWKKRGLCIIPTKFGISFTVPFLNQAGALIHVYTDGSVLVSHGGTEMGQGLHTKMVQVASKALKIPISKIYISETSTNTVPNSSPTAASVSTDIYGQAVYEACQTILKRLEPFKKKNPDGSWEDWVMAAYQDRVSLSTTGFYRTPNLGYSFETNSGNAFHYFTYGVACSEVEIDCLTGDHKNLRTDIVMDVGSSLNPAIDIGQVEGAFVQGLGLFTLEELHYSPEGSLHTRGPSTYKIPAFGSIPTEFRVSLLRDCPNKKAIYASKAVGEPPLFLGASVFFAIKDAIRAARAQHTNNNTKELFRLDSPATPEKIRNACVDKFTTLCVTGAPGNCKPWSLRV
`CC(CF)n1cc(C#N)c2cc(-n3cc(C(=O)O)cn3)ccc21` (centres unmarked) [Example 10, 1-[3-cyano-1-(1-fluoropropan-2-yl)-indol-5-yl]-pyrazole-4-carboxylic acid] showed an IC50 of 5.2 nM.

In turn, `CCC(C)n1cc(C#N)c2cc(-n3cc(C(=O)O)cn3)ccc21` (centres unmarked) [Example 7, 1-(3-cyano-1-sec-butyl-indol-5-yl)-pyrazole-4-carboxylic acid] yielded a half-maximal inhibitory concentration (IC50) of 6.7 nM.

In turn, `CC(C)n1cc([N+](=O)[O-])c2cc(-c3cc(C(=O)O)ccn3)ccc21` [Example 27, 2-(1-isopropyl-3-nitro-indol-5-yl) isonicotinic acid] came in with a 50% inhibitory concentration (IC50) of 11 nM. Compared with the last compound, the IC50 is about 1.6-fold higher.

For `N#Cc1cn(CC2CC2)c2ccc(-n3cc(C(=O)O)cn3)cc12` [Example 2, 1-[3-cyano-1-(cyclopropylmethyl)indol-5-yl]pyrazole-4-carboxylic acid], the midpoint of inhibition, the IC50, lay at 2.8 nM. Against the preceding compound, the IC50 is about 3.9-fold lower.

Regarding `COCCn1cc(C#N)c2cc(-n3cc(C(=O)O)cn3)ccc21` [Example 6, 1-[3-cyano-1-(2-methoxyethyl)indol-5-yl]pyrazole-4-carboxylic acid], inhibition was half-maximal at 3.8 nM (IC50).

Take `CC(C)n1cc(C#N)c2cc(-c3ccc(C(=O)O)s3)ccc21` [Example 20, 5-(3-cyano-1-isopropyl-indol-5-yl)-thiophene-2-carboxylic acid]: half-maximal inhibition (IC50) required 4.7 nM. This IC50 and that of the compound before are within 1.5-fold of each other.

Compound `N#Cc1cn(C2CCOC2)c2ccc(-n3cc(C(=O)O)cn3)cc12` (centres unmarked) [Example 11, 1-[3-cyano-1-(tetrahydrofuran-3-yl)-indol-5-yl]-pyrazole-4-carboxylic acid] yielded an IC50 of 5.4 nM.

Consider `N#Cc1cn(C2CCC2)c2ccc(-n3cc(C(=O)O)cn3)cc12` [Example 8, 1-[3-cyano-1-cyclobutyl-indol-5-yl]pyrazole-4-carboxylic acid], for which half-maximal inhibition (IC50) was put at 6.9 nM.

For `Cc1cc(C(=O)O)cc(-c2ccc3c(c2)c(C#N)cn3C(C)C)n1` [Example 26, 2-(3-cyano-1-isopropyl-indol-5-yl)-6-methylisonicotinic acid], it took 3940 nM to reach half-maximal inhibition (IC50).

For `CC(C)(C)Cn1cc(C#N)c2cc(-n3cc(C(=O)O)cn3)ccc21` [Example 5, 1-[3-cyano-1-(2,2-dimethylpropyl)indol-5-yl]pyrazole-4-carboxylic acid], inhibition was half-maximal at 5 nM (IC50).

As to `CC(C)n1cc(C#N)c2cc(-n3cc(C(=O)O)c(C(F)(F)F)n3)ccc21` [Example 15, 1-[3-cyano-1-isopropyl-indol-5-yl]-3-(trifluoromethyl)pyrazole-4-carboxylic acid], it took 29200 nM to reach half-maximal inhibition (IC50).

In turn, `N#Cc1cn(CC2CC2)c2ccc(-c3cc(C(=O)O)ccn3)cc12` [Example 22, 2-[3-cyano-1-(cyclopropylmethyl)-indol-5-yl]isonicotinic acid] showed an IC50 of 2.1 nM.

`COCCn1cc(C#N)c2cc(-n3cc(C(=O)O)c(C)n3)ccc21` [Example 14, 1-[3-cyano-1-(2-methoxyethyl)indol-5-yl]-3-methyl-pyrazole-4-carboxylic acid] showed a 50% inhibitory concentration (IC50) of 12 nM. This IC50 lies about 5.7-fold higher than the previous one.

Consider `CC(C)n1cc(C#N)c2cc(-n3cc(C(=O)O)cn3)ccc21` [Example 1, 1-(3-cyano-1-isopropyl-indol-5-yl)pyrazole-4-carboxylic acid], for which inhibition was half-maximal at 3.4 nM (IC50).

With `CC(C)n1cc(C#N)c2cc(-c3cc(C(=O)O)ccn3)ccc21` [Example 21, 2-(3-cyano-1-isopropyl-indol-5-yl)isonicotinic acid], the IC50 was 6.2 nM.

For the compound `N#Cc1cn(C2CC2)c2ccc(-n3cc(C(=O)O)cn3)cc12` [Example 3, 1-[3-cyano-1-cyclopropyl-indol-5-yl]pyrazole-4-carboxylic acid], 6 nM corresponded to half-maximal inhibition (IC50). This IC50 and that of the compound before are within 1.5-fold of each other.

For the compound `N#Cc1cn(C2CCCC2)c2ccc(-n3cc(C(=O)O)cn3)cc12` [Example 9, 1-(3-cyano-1-cyclopentyl-indol-5-yl)-pyrazole-4-carboxylic acid], the concentration for half-maximal inhibition (IC50) came to 4.6 nM. This IC50 and that of the compound before are within 1.5-fold of each other.

The compound `CC(CF)n1cc(C#N)c2cc(-c3cc(C(=O)O)ccn3)ccc21` (centres unmarked) [Example 24, 2-[3-cyano-1-(1-fluoropropan-2-yl)-indol-5-yl]isonicotinic acid] showed an IC50 of 6.2 nM.

In turn, `COCc1cc2cc(-n3cc(C(=O)O)cn3)cc(C#N)c2[nH]1` [Example 30, 1-(7-cyano-2-methoxymethyl-1H-indol-5-yl)-pyrazole-4-carboxylic acid] returned an IC50 of 17 nM.

As for `Cc1nn(-c2ccc3c(c2)c(C#N)cn3C(C)C)cc1C(=O)O` [Example 12, 1-[3-cyano-1-isopropyl-indol-5-yl]-3-methyl-pyrazole-4-carboxylic acid], the IC50 came out at 11.6 nM.

For the compound `CC(C)n1cc([N+](=O)[O-])c2cc(-n3cc(C(=O)O)cn3)ccc21` [Example 17, 1-(1-isopropyl-3-nitro-indol-5-yl)pyrazole-4-carboxylic acid], the half-maximal inhibitory concentration (IC50) was 4.6 nM.

The compound `Cc1nn(-c2ccc3c(c2)c(C#N)cn3CC2CC2)cc1C(=O)O` [Example 13, 1-[3-cyano-1-(cyclopropylmethyl)indol-5-yl]-3-methyl-pyrazole-4-carboxylic acid] yielded a 50% inhibitory concentration (IC50) of 4.8 nM.

`N#Cc1cc(-n2cc(C(=O)O)cn2)cc2cc(-c3ccccc3)[nH]c12` [Example 28, 1-(7-cyano-2-phenyl-1H-indol-5-yl)-pyrazole-4-carboxylic acid] came in with a half-inhibitory concentration (IC50) of 24 nM.

In the case of `N#Cc1cc(-n2cc(C(=O)O)cn2)cc2cc[nH]c12` [Example 31, 1-(7-cyano-1H-indol-5-yl)-pyrazole-4-carboxylic acid], it took 40 nM to reach half-maximal inhibition (IC50).

`N#Cc1cn(C2CCOC2)c2ccc(-c3cc(C(=O)O)ccn3)cc12` (centres unmarked) [Example 23, 2-[3-cyano-1-(tetrahydrofuran-3-yl)-indol-5-yl]isonicotinic acid] returned an IC50 of 10 nM.

`CC(C)Cn1cc(C#N)c2cc(-n3cc(C(=O)O)cn3)ccc21` [Example 4, 1-(3-cyano-1-isobutyl-indol-5-yl)pyrazole-4-carboxylic acid] showed a concentration for half-maximal inhibition (IC50) of 4.5 nM.

As for `N#Cc1cn(CC2CC2)c2ccc(-n3cc(C(=O)O)c(C(F)(F)F)n3)cc12` [Example 16, 1-[3-cyano-1-(cyclopropylmethyl)indol-5-yl]-3-(trifluoromethyl)pyrazole-4-carboxylic acid], the IC50 is 21300 nM.

Compound `CC(C)c1cc2cc(-n3cc(C(=O)O)cn3)cc(C#N)c2[nH]1` [Example 29, 1-(7-cyano-2-isopropyl-1H-indol-5-yl)-pyrazole-4-carboxylic acid] gave a 50% inhibitory concentration (IC50) of 5 nM.

The compound `CC(C)n1cc(C#N)c2cc(-n3cnc(C(=O)O)c3)ccc21` [Example 19, 1-(3-cyano-1-isopropyl-indol-5-yl)imidazole-4-carboxylic acid] had a concentration for half-maximal inhibition (IC50) of 24 nM.

For the compound `COCCn1cc(C#N)c2cc(-c3cc(C(=O)O)ccn3)ccc21` [Example 25, 2-[3-cyano-1-(2-methoxyethyl)-indol-5-yl]isonicotinic acid], the IC50 came to 8.5 nM.

For the compound `CC(C)n1cc(C#N)c2cc(-n3cnc(C(=O)O)n3)ccc21` [Example 18, 1-(3-cyano-1-isopropyl-indol-5-yl)-1,2,4-triazole-3-carboxylic acid], the half-maximal inhibitory concentration (IC50) turned out to be 13 nM.

The subject of the next test is plasma uric acid. Description: In vivo xanthine oxidase assay: plasma uric acid-lowering activity in oxonic acid-induced high-uric acid model. The arrangement: species or system rat. To be noted: male SD rats, potassium oxonate 300 mg/kg i.p., compound 10 mg/kg oral, plasma at 1 h after oral administration; normal group = 100% inhibition, control group = 0%. Here is the method: Uric Acid-Lowering Activity in Plasma and Liver (Oxonic Acid-Induced High-Uric Acid Model in Rat)
In order to estimate the plasma uric acid-lowering ability of the compounds according to the present invention, experiments were carried out using oxonic acid-induced high-uric acid model.
300 mg/kg of potassium oxonate suspended in 0.8% carboxymethylcellulose solution was intraperitoneally administered to male SD rats of body weight 200 g (control group, compound administration group). 1 h after the oxonic acid administration, 10 mg/kg of test compounds dissolved in polyethyleneglycol 400:ethanol (2:1) solution were orally administered (compound administration group), and after the time period of 1 h blood was sampled. Plasma was separated from thus-obtained blood, and the uric acid concentration in the plasma was quantified utilizing LC-MS/MS. FIGS. 1 and 2 represent the results of plasma uric acid concentration and inhibition rate of plasma uric acid, respectively.
Through the present experiment, excellent plasma uric acid-lowering activity of the compounds according to the present invention was verified.
For the compound `CC(C)n1cc(C#N)c2cc(-n3cc(C(=O)O)cn3)ccc21` [Example 1, 1-(3-cyano-1-isopropyl-indol-5-yl)pyrazole-4-carboxylic acid], the “uric acid inhibition rate” value came out at 60%.
